Measurements reported in publication PMC8222254, “Self-assembly of an anion receptor with metal-dependent kinase inhibition and potent in vitro anti-cancer properties” (Nature Communications, 2021).
Values joined by “and” are separate entries in the source; they are usually repeats but may differ in a detail not shown here. Identical values can stand only once. Like-named read-outs stand apart in the source and are kept apart here.

Key:
Format in all cases: cell-based, human
DLD-1 = test: Chemosensitivity, 96 h continuous exposure, MTT assay; details: for Selectivity index (ARPE19): IC50 ARPE-19 / IC50 DLD-1; for Selectivity index (MCF10A): IC50 MCF10A / IC50 DLD-1; for Relative potency (+ anion to no anion), Ratio + anion:no anion: ratio of IC50, DLD-1; for Selectivity indices relative to ARPE-19, Ratio + anion:no anion: ratio of SI (ARPE-19); for Selectivity indices relative to MCF10A, Ratio + anion:no anion: ratio of SI (MCF 10A);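 as to SI (NPI): adult human brain neural progenitor non-cancer cells from an epilepsy surgery patient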;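 as to Selectivity Index using the NPI non-cancer cell line: adult human brain neural progenitor non-cancer cells from an epilepsy surgery patient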
How it was run: (§1)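 Cells seeded at 2 × 10^3/well (GBM1 3 × 10^3/well) and left overnight at 37 °C, then exposed continuously for 96 h to a range of compound concentrations (final DMSO 0.2%). Viability read by MTT, absorbance at 540 nm; IC50 taken from dose-response curves as concentration reducing cell growth by 50%.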

PSN1 = test: as above; details: for Selectivity index (ARPE19): IC50 ARPE-19 / IC50 PSN1; for Selectivity index (MCF10A): IC50 MCF10A / IC50 PSN1; for Relative potency (+ anion to no anion), Ratio + anion:no anion: ratio of IC50, PSN1; for Selectivity indices relative to ARPE-19, Ratio + anion:no anion: ratio of SI (ARPE-19); for Selectivity indices relative to MCF10A, Ratio + anion:no anion: ratio of SI (MCF 10A)
How it was run: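 Growth inhibition is measured by MTT after cells are dosed for 96 h without washout. The 50% growth-reduction concentration is then interpolated from the curves.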

BxPC3 = test: as above; details: for Selectivity index (ARPE19): IC50 ARPE-19 / IC50 BXPC3; for Selectivity index (MCF10A): IC50 MCF10A / IC50 BXPC3; for Relative potency (+ anion to no anion), Ratio + anion:no anion: ratio of IC50, BXPC3; for Selectivity indices relative to ARPE-19, Ratio + anion:no anion: ratio of SI (ARPE-19); for Selectivity indices relative to MCF10A, Ratio + anion:no anion: ratio of SI (MCF 10A)
How it was run: as §1

MiaPaCa2 = test: as above; details: for Selectivity index (ARPE19): IC50 ARPE-19 / IC50 MiaPaCa2; for Selectivity index (MCF10A): IC50 MCF10A / IC50 MiaPaCa2; for Relative potency (+ anion to no anion), Ratio + anion:no anion: ratio of IC50, MiaPaCa2; for Selectivity indices relative to ARPE-19, Ratio + anion:no anion: ratio of SI (ARPE-19); for Selectivity indices relative to MCF10A, Ratio + anion:no anion: ratio of SI (MCF 10A)
How it was run: as §1

HCT116 p53+/+ = test: Quantification of cellular ATP levels (CellTiterGlo); details: for % ATP Activity (Average): HCT116 p53+/+ cells, average of runs, relative to 0 µM = 100
Protocol: (§2) ARPE-19 and HCT116 p53^+/+ cells were seeded in 96-well opaque plates at a density of 7500 cells/well. 24 h after seeding, cells were treated for 20 h with a range of concentrations of [[…]]^6+, [L2Zn3]^6+, [[…]]^6+, or vehicle control (2-fold serial dilution from 100-3.125 μM) before determining total cellular ATP content by quantification of luminescence (CellTiterGlo® assay, Promega). ATP levels were normalised relative to levels in vehicle control-treated cells.

ARPE-19 = test: as above; details: for % ATP Activity (Average): ARPE-19 cells, average of runs, relative to 0 µM = 100
Protocol: as §2

[1] = DLD-1, mean of replicates, read-out: Mean IC50
[2] = DLD-1, read-out: Mean IC50 values
[3] = PSN1, mean of replicates, read-out: Mean IC50
[4] = PSN1, read-out: Mean IC50 values
[5] = BXPC3, mean of replicates, read-out: Mean IC50
[6] = BXPC3, read-out: Mean IC50 values
[7] = MiaPaCa2, mean of replicates, read-out: Mean IC50
[8] = MiaPaCa2, read-out: Mean IC50 values
[9] = MiaPaCa2, single replicate, read-out: IC50 values for each replicate
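For SI (NPI) in this document: adult human brain neural progenitor non-cancer cells from an epilepsy surgery patient.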
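For Selectivity Index using the NPI non-cancer cell line in this document: adult human brain neural progenitor non-cancer cells from an epilepsy surgery patient.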

O=S(=O)(O)O.[Zn+2].[Zn+2].[Zn+2].c1ccc(-c2csc(NCCN(CCNc3nc(-c4ccccn4)cs3)CCNc3nc(-c4ccccn4)cs3)n2)nc1.c1ccc(-c2csc(NCCN(CCNc3nc(-c4ccccn4)cs3)CCNc3nc(-c4ccccn4)cs3)n2)nc1 [[L2Zn3(SO4)]4+]
IC50 (DLD-1; [1]): 338 nM
IC50 (DLD-1; [2]): 338 nM
Selectivity index (ARPE19) (DLD-1): 500.80
Selectivity index (MCF10A) (DLD-1): 45.05
Relative potency (+ anion to no anion), Ratio + anion:no anion (DLD-1): 1.99
Selectivity indices relative to ARPE-19, Ratio + anion:no anion (DLD-1; DLD-1): 0.541
Selectivity indices relative to MCF10A, Ratio + anion:no anion (DLD-1; DLD-1): 0.047
Selectivity index (ARPE19) (PSN1): 748.98
Selectivity index (MCF10A) (PSN1): 67.38
IC50 (PSN1; [3]): 226 nM
IC50 (PSN1; [4]): 226 nM
IC50 (PSN1; PSN1, single replicate, read-out: IC50 values for each replicate): 217 nM and 199 nM and 261 nM
activity relative to [L2Zn3(PO4)]3+ or [L2Zn3]6+ (PSN1; PSN1 cell line, anion pre-encapsulated): significantly more active
Relative potency (+ anion to no anion), Ratio + anion:no anion (PSN1): 0.05
Selectivity indices relative to ARPE-19, Ratio + anion:no anion (PSN1; PSN1): 21.164
Selectivity indices relative to MCF10A, Ratio + anion:no anion (PSN1; PSN1): 1.852
IC50 (BxPC3; [5]): 599 nM
IC50 (BxPC3; [6]): 599 nM
IC50 (BxPC3; BXPC3, single replicate, read-out: IC50 values for each replicate): 668 nM and 428 nM and 705 nM and 728 nM and 465 nM
Selectivity index (ARPE19) (BxPC3): 282.59
Selectivity index (MCF10A) (BxPC3): 25.42
Relative potency (+ anion to no anion), Ratio + anion:no anion (BxPC3): 1.87
Selectivity indices relative to ARPE-19, Ratio + anion:no anion (BxPC3; BXPC3): 0.575
Selectivity indices relative to MCF10A, Ratio + anion:no anion (BxPC3; BXPC3): 0.050
Selectivity index (ARPE19) (MiaPaCa2): 3.29
Selectivity index (MCF10A) (MiaPaCa2): 0.30
IC50 (MiaPaCa2; [7]): 51500 nM
IC50 (MiaPaCa2; [8]): 51500 nM
IC50 (MiaPaCa2; [9]): 52600 nM and 36700 nM and 60800 nM and 55800 nM
Relative potency (+ anion to no anion), Ratio + anion:no anion (MiaPaCa2): 0.87
Selectivity indices relative to ARPE-19, Ratio + anion:no anion (MiaPaCa2; MiaPaCa2): 1.236
Selectivity indices relative to MCF10A, Ratio + anion:no anion (MiaPaCa2; MiaPaCa2): 0.108

CC(=O)[O-].CC(=O)[O-].CC(=O)[O-].CC(=O)[O-].CC(=O)[O-].CC(=O)[O-].[Zn+2].[Zn+2].[Zn+2].c1ccc(-c2csc(NCCN(CCNc3nc(-c4ccccn4)cs3)CCNc3nc(-c4ccccn4)cs3)n2)nc1.c1ccc(-c2csc(NCCN(CCNc3nc(-c4ccccn4)cs3)CCNc3nc(-c4ccccn4)cs3)n2)nc1 [[L2Zn3]6+]
IC50 (DLD-1; DLD-1, 96 h, MTT, individual run, read-out: IC50 values for each replicate): 216 nM and 89 nM and 84 nM and 141 nM and 222 nM and 211 nM and 225 nM
IC50 (DLD-1; DLD-1, 96 h, MTT, mean of at least 3 independent experiments, read-out: Mean IC50): 170 nM
IC50 (DLD-1; [1]): 170 nM
IC50 (DLD-1; [2]): 170 nM
Selectivity index (ARPE19) (DLD-1): 925.00
Selectivity index (MCF10A) (DLD-1): 950.82
Selectivity Index using the NPI non-cancer cell line (DLD-1; IC50 NP1 / IC50 DLD-1): 45.76
SI (ARPE19) (DLD-1; mean IC50 ARPE-19 / mean IC50 DLD-1): 925.00
SI (MCF10A) (DLD-1; mean IC50 MCF10A / mean IC50 DLD-1): 950.82
SI (NPI) (DLD-1; mean IC50 NP1 / mean IC50 DLD-1): 45.76
Relative potency (+ anion to no anion), Ratio + anion:no anion (DLD-1): 1
Selectivity indices relative to ARPE-19, Ratio + anion:no anion (DLD-1; DLD-1): 1
Selectivity indices relative to MCF10A, Ratio + anion:no anion (DLD-1; DLD-1): 1
Selectivity index (ARPE19) (PSN1): 35.39
Selectivity index (MCF10A) (PSN1): 36.38
Selectivity Index using the NPI non-cancer cell line (PSN1; IC50 NP1 / IC50 PSN1): 1.75
IC50 (PSN1; PSN1, 96 h, MTT, individual run, read-out: IC50 values for each replicate): 6200 nM and 4880 nM and 2250 nM
IC50 (PSN1; PSN1, 96 h, MTT, mean of at least 3 independent experiments, read-out: Mean IC50): > 1000 nM
IC50 (PSN1; [3]): 4440 nM
IC50 (PSN1; [4]): 4440 nM
SI (ARPE19) (PSN1; mean IC50 ARPE-19 / mean IC50 PSN1): 35.39
SI (MCF10A) (PSN1; mean IC50 MCF10A / mean IC50 PSN1): 36.38
SI (NPI) (PSN1; mean IC50 NP1 / mean IC50 PSN1): 1.75
Relative potency (+ anion to no anion), Ratio + anion:no anion (PSN1): 1
Selectivity indices relative to ARPE-19, Ratio + anion:no anion (PSN1; PSN1): 1
Selectivity indices relative to MCF10A, Ratio + anion:no anion (PSN1; PSN1): 1
IC50 (BxPC3; [5]): 320 nM
IC50 (BxPC3; [6]): 320 nM
IC50 (BxPC3; BxPC3, 96 h, MTT, individual run, read-out: IC50 values for each replicate): 228 nM and 147 nM and 595 nM and 533 nM and 171 nM and 249 nM
IC50 (BxPC3; BxPC3, 96 h, MTT, mean of at least 3 independent experiments, read-out: Mean IC50): 320 nM
Selectivity index (ARPE19) (BxPC3): 491.41
Selectivity index (MCF10A) (BxPC3): 505.12
Selectivity Index using the NPI non-cancer cell line (BxPC3; IC50 NP1 / IC50 BXPC3): 24.31
SI (ARPE19) (BxPC3; mean IC50 ARPE-19 / mean IC50 BxPC3): 491.41
SI (MCF10A) (BxPC3; mean IC50 MCF10A / mean IC50 BxPC3): 505.12
SI (NPI) (BxPC3; mean IC50 NP1 / mean IC50 BxPC3): 24.31
Relative potency (+ anion to no anion), Ratio + anion:no anion (BxPC3): 1
Selectivity indices relative to ARPE-19, Ratio + anion:no anion (BxPC3; BXPC3): 1
Selectivity indices relative to MCF10A, Ratio + anion:no anion (BxPC3; BXPC3): 1
Selectivity index (ARPE19) (MiaPaCa2): 2.66
Selectivity index (MCF10A) (MiaPaCa2): 2.74
Selectivity Index using the NPI non-cancer cell line (MiaPaCa2; IC50 NP1 / IC50 MiaPaCa2): 0.13
IC50 (MiaPaCa2; MiaPaCa2, 96 h, MTT, individual run, read-out: IC50 values for each replicate): 11900 nM and 15000 nM and 16300 nM
IC50 (MiaPaCa2; [7]): 59100 nM
IC50 (MiaPaCa2; [8]): 59100 nM
IC50 (MiaPaCa2; [9]): 52700 nM and 64800 nM and 64500 nM and 54300 nM
SI (ARPE19) (MiaPaCa2; mean IC50 ARPE-19 / mean IC50 MiaPaCa2): 10.90
SI (MCF10A) (MiaPaCa2; mean IC50 MCF10A / mean IC50 MiaPaCa2): 11.21
SI (NPI) (MiaPaCa2; mean IC50 NP1 / mean IC50 MiaPaCa2): 0.54
Relative potency (+ anion to no anion), Ratio + anion:no anion (MiaPaCa2): 1
Selectivity indices relative to ARPE-19, Ratio + anion:no anion (MiaPaCa2; MiaPaCa2): 1
Selectivity indices relative to MCF10A, Ratio + anion:no anion (MiaPaCa2; MiaPaCa2): 1
% ATP Activity (Average) (HCT116 p53+/+; 3.125 µM complex): 71.75%
% ATP Activity (Average) (HCT116 p53+/+; 6.25 µM complex): 63.36%
% ATP Activity (Average) (HCT116 p53+/+; 12.5 µM complex): 54.43%
% ATP Activity (Average) (HCT116 p53+/+; 25 µM complex): 46.16%
% ATP Activity (Average) (HCT116 p53+/+; 50 µM complex): 35.67%
% ATP Activity (Average) (HCT116 p53+/+; 100 µM complex): 26.26%
ATP levels relative to vehicle control (HCT116 p53+/+; HCT116 p53+/+, concentrations of ≥25μM, 20h): < 50%
ATP levels relative to vehicle control (ARPE-19; ARPE19, 100μM, 20h): > 70%
% ATP Activity (Average) (ARPE-19; 3.125 µM complex): 91.98%
% ATP Activity (Average) (ARPE-19; 6.25 µM complex): 88.71%
% ATP Activity (Average) (ARPE-19; 12.5 µM complex): 84.92%
% ATP Activity (Average) (ARPE-19; 25 µM complex): 79.86%
% ATP Activity (Average) (ARPE-19; 50 µM complex): 79.43%
% ATP Activity (Average) (ARPE-19; 100 µM complex): 73.40%
